Test results as given in patent US6875448B1, “Method of intracellular sustained-release of drug and preparations” (Chugai Seiyaku Kabushiki Kaisha, priority 1999, dated 2005).

System: Ltk− cells
Assay: Efficiency of introduction into cells with the aid of Ca2+ indicator
Format: cell-based, mouse
Conditions: intracellular calcium elevated by calcium ionophore
Method: To the nanospheres (red fluorescent), calcium green-1 acetoxymethyl derivative was added as a fluorescent Ca^2+ indicator to give a concentration of 20 mM and mixed at room temperature for 1 hour so that it was adsorbed on the nanospheres. The unadsorbed calcium green-1 was removed by dialysis (Spectra/Por Membranes MWCO:12-14000) and buffer replacement was performed to prepare liposomes and fusogenic liposomes. 2×10^5 Ltk^−cells that had been seeded on 6-well plates one day before were washed with PBS(−) and exposed for 1 minute to the action of the calcium green-1 acetoxymethyl derivative, calcium green-1 adsorbed nanospheres, liposomes or fusogenic liposomes which were all conditioned to have the same fluorescence intensity of 2700 (Ex. 488 nm; Em, 534 nm). Thereafter, the cells were washed with PBS(−), cultured in an Eagle's MEM medium for 1 hour, stripped from the medium with trypsin and subjected to the measurement of fluorescence intensity (Ex, 488 nm; Em, 534 nm). Thereafter, a calcium ionophore/DMSO solution was added to give a concentration of 0.1 mg/mL and fluorescence intensity was measured at Ex=488 nm and Em=534 nm.

## calcium green-1 acetoxymethyl derivative
  fluorescence of calcium green-1 in cells: barely detectable
